From ChEMBL document CHEMBL3217535, “Synthesis and biological activity of furanylindazoles as inhibitors of hypoxia inducible factor (HIF)-1 transcriptional activity” (Medchemcomm, 2012)
Each block holds one molecule with its values, some of them ahead of it. Calls of active or inactive are those of the source. The calls are words filed in the database; no cut-off is given here.

Key:
[1] = Inhibition of HIF-1 (unknown origin) expressed in human HeLa cells after 12 hrs by HRE luciferase reporter gene assay; assay type: cell-based
Mus musculus [2] = assay: In vivo inhibition of HIF1 transcriptional activity in nude mouse xenografted with human SUIT2/HRE-luc cells at 10 mg/kg, ip measured after 12 hrs by bioluminescence assay; assay type: functional, organism-based; parameters: dose 10 mg/kg
Mus musculus [3] = assay: In vivo inhibition of HIF1 transcriptional activity in nude mouse xenografted with human SUIT2/HRE-luc cells at 10 mg/kg, ip measured after 24 hrs by bioluminescence assay; assay type: functional, organism-based; parameters: dose 10 mg/kg
[4] = Growth inhibition of human HBC4 cells by SRB assay; assay type: functional; details: HBC4, read-out: pGI50 (converted)
[5] = Growth inhibition of human BSY1 cells by SRB assay; assay type: functional; details: BSY-1
[6] = Growth inhibition of human HBC5 cells by SRB assay; assay type: functional
MCF7 = assay: Growth inhibition of human MCF7 cells by SRB assay; assay type: functional
MDA-MB-231 = assay: Growth inhibition of human MDA-MB-231 cells by SRB assay; assay type: functional
U-251 = assay: Growth inhibition of human U251 cells by SRB assay; assay type: functional
SF-268 = assay: Growth inhibition of human SF268 cells by SRB assay; assay type: functional; details: SF-268, read-out: pGI50 (converted)
[7] = Growth inhibition of human SF295 cells by SRB assay; assay type: functional; details: SF-295
[8] = Growth inhibition of human SF539 cells by SRB assay; assay type: functional; details: SF-539, read-out: pGI50 (converted)
SNB-75 = assay: Growth inhibition of human SNB75 cells by SRB assay; assay type: functional; details: SNB-75, read-out: pGI50 (converted)
[9] = Growth inhibition of human SNB78 cells by SRB assay; assay type: functional; details: SNB-78, read-out: pGI50 (converted)
[10] = Growth inhibition of human HCC2998 cells by SRB assay; assay type: functional; details: HCC 2998, read-out: pGI50 (converted)
KM12 = assay: Growth inhibition of human KM12 cells by SRB assay; assay type: functional
HT-29 = assay: Growth inhibition of human HT-29 cells by SRB assay; assay type: functional; details: HT-29, read-out: pGI50 (converted)
[11] = Growth inhibition of human HCT15 cells by SRB assay; assay type: functional; details: HCT-15
HCT-116 = assay: Growth inhibition of human HCT116 cells by SRB assay; assay type: functional
NCI-H23 = assay: Growth inhibition of human NCI-H23 cells by SRB assay; assay type: functional; details: NCI-H23, read-out: pGI50 (converted)
NCI-H226 = assay: Growth inhibition of human NCI-H226 cells by SRB assay; assay type: functional
NCI-H522 = assay: Growth inhibition of human NCI-H522 cells by SRB assay; assay type: functional
NCI-H460 = assay: Growth inhibition of human NCI-H460 cells by SRB assay; assay type: functional
A549 = assay: Growth inhibition of human A549 cells by SRB assay; assay type: functional
[12] = Growth inhibition of human DMS273 cells by SRB assay; assay type: functional; details: DMS-273
[13] = Growth inhibition of human DMS114 cells by SRB assay; assay type: functional; details: DMS-114
[14] = Growth inhibition of human LOXIMVI cells by SRB assay; assay type: functional; details: LOX IMVI
[15] = Growth inhibition of human OVCAR3 cells by SRB assay; assay type: functional; details: OVCAR-3
[16] = Growth inhibition of human OVCAR4 cells by SRB assay; assay type: functional; details: OVCAR-4, read-out: pGI50 (converted)
[17] = Growth inhibition of human OVCAR5 cells by SRB assay; assay type: functional; details: OVCAR-5
[18] = Growth inhibition of human OVCAR8 cells by SRB assay; assay type: functional; details: OVCAR-8
SK-OV-3 = assay: Growth inhibition of human SKOV3 cells by SRB assay; assay type: functional
[19] = Growth inhibition of human RXF631L cells by SRB assay; assay type: functional; details: for GI50: RXF 631
ACHN = assay: Growth inhibition of human ACHN cells by SRB assay; assay type: functional
St-4 = assay: Growth inhibition of human St-4 cells by SRB assay; assay type: functional; details: St-4, read-out: pGI50 (converted)
[20] = Growth inhibition of human MKN1 cells by SRB assay; assay type: functional; details: MKN-1, read-out: pGI50 (converted)
[21] = Growth inhibition of human MKN7 cells by SRB assay; assay type: functional; details: MKN-7
[22] = Growth inhibition of human MKN28 cells by SRB assay; assay type: functional; details: MKN-28
[23] = Growth inhibition of human MKN45 cells by SRB assay; assay type: functional; details: MKN-45
[24] = Growth inhibition of human MKN74 cells by SRB assay; assay type: functional; details: MKN-74, read-out: pGI50 (converted)
DU-145 = assay: Growth inhibition of human DU145 cells by SRB assay; assay type: functional; details: DU-145, read-out: pGI50 (converted)
PC-3 = assay: Growth inhibition of human PC3 cells by SRB assay; assay type: functional
[25] = Drug uptake in nucleus of human RXF631L cells azide-Alexa 488-based fluorescent microscopy; assay type: ADME
[26] = Drug uptake in nucleus of human NCI-H226 cells azide-Alexa 488-based fluorescent microscopy; assay type: ADME, cell-based
[27] = Drug uptake in cytoplasm of human NCI-H226 cells azide-Alexa 488-based fluorescent microscopy; assay type: ADME, cell-based
[28] = Drug uptake in cytoplasm of human RXF631L cells azide-Alexa 488-based fluorescent microscopy; assay type: ADME
[29] = Drug uptake in granular vesicle of human RXF631L cells azide-Alexa 488-based fluorescent microscopy; assay type: ADME
[30] = Drug uptake in granular vesicle of human MKN1 cells azide-Alexa 488-based fluorescent microscopy; assay type: ADME, cell-based; details: mkn-1
[31] = Drug uptake in granular vesicle of human NCI-H226 cells azide-Alexa 488-based fluorescent microscopy; assay type: ADME, cell-based

IC50 [1]: 0.53 µM
Structure (SMILES): OCc1ccc(-c2nn(Cc3ccc(F)cc3)c3ccccc23)o1

IC50 [1]: 0.1 µM
GI50 (MCF7): 38 µM
GI50 (MDA-MB-231): 25.1 µM
GI50 (U-251): 95.5 µM
GI50 (HT-29): > 100 µM
GI50 (HCT-116): 58.9 µM
GI50 (NCI-H23): > 100 µM
GI50 (NCI-H226): 0.0513 µM
GI50 (NCI-H522): 17.8 µM
GI50 (NCI-H460): 41.7 µM
GI50 (A549): 66.1 µM
GI50 (SK-OV-3): 53.7 µM
GI50 (ACHN): 74.1 µM
GI50 (DU-145): > 100 µM
GI50 (PC-3): 43.7 µM
Structure (SMILES): OCc1ccc(-c2nn(Cc3c(F)cccc3F)c3ccccc23)o1
inhibition (Mus musculus [2]): Active
inhibition (Mus musculus [3]): inactive
GI50 [4]: > 100 µM
GI50 [5]: 29.5 µM
GI50 [6]: 30.2 µM
GI50 (SF-268): > 100 µM
GI50 [7]: 49 µM
GI50 [8]: > 100 µM
GI50 (SNB-75): > 100 µM
GI50 [9]: > 100 µM
GI50 [10]: > 100 µM
GI50 (KM12): 79.4 µM
GI50 [11]: 41.7 µM
GI50 [12]: 50.1 µM
GI50 [13]: 41.7 µM
GI50 [14]: 24.5 µM
GI50 [15]: 75.9 µM
GI50 [16]: > 100 µM
GI50 [17]: 72.4 µM
GI50 [18]: 77.6 µM
GI50 [19]: 0.0447 µM
GI50 (St-4): > 100 µM
GI50 [20]: > 100 µM
GI50 [21]: 36.3 µM
GI50 [22]: 51.3 µM
GI50 [23]: 24 µM
GI50 [24]: > 100 µM

IC50 [1]: 1.24 µM
Structure (SMILES): [N-]=[N+]=Nc1ccc(Cn2nc(-c3ccc(CO)o3)c3ccccc32)cc1

IC50 [1]: 0.7 µM
Structure (SMILES): [N-]=[N+]=NCc1ccc(Cn2nc(-c3ccc(CO)o3)c3ccccc32)cc1

IC50 [1]: > 30 µM
Structure (SMILES): C#CC(O)c1ccc(-c2nn(Cc3ccccc3)c3ccccc23)o1 (centres undefined)

IC50 [1]: 0.83 µM
Structure (SMILES): OCc1ccc(-c2nn(Cc3ccncc3)c3ccccc23)o1

IC50 [1]: 0.31 µM
Structure (SMILES): OCc1ccc(-c2nn(Cc3ccc(F)cc3F)c3ccccc23)o1

IC50 [1]: 0.48 µM
Structure (SMILES): OCc1ccc(-c2nn(Cc3cccc(F)c3)c3ccccc23)o1

IC50 [1]: 3.3 µM
Structure (SMILES): OCc1ccc(-c2nn(Cc3ccc(-c4ccccc4)cc3)c3ccccc23)o1

IC50 [1]: 0.3 µM
Structure (SMILES): OCc1ccc(-c2nn(Cc3ccccn3)c3ccccc23)o1

The remaining lines, values behind:

Structure (SMILES): OCc1ccc(-c2nn(Cc3ccc(Cl)cc3)c3ccccc23)o1
IC50 [1]: 2.8 µM

Structure (SMILES): O=Cc1ccc(-c2nn(Cc3ccccc3)c3ccccc23)o1
IC50 [1]: 9 µM

Structure (SMILES): N#Cc1ccc(Cn2nc(-c3ccc(CO)o3)c3ccccc32)cc1
IC50 [1]: 0.27 µM

Structure (SMILES): OCc1ccc(-c2nn(Cc3c(F)c(F)c(F)c(F)c3F)c3ccccc23)o1
IC50 [1]: 0.18 µM

Structure (SMILES): OCc1ccc(-c2nn(Cc3c(F)c(F)cc(F)c3F)c3ccccc23)o1
IC50 [1]: 0.07 µM
inhibition (Mus musculus [3]): inactive

Structure (SMILES): OCc1ccc(-c2nn(Cc3cccnc3)c3ccccc23)o1
IC50 [1]: 0.46 µM

Structure (SMILES): C#CCNc1ccc(Cn2nc(-c3ccc(CO)o3)c3ccccc32)cc1
IC50 [1]: 0.61 µM
Drug uptake [25]: Active
Drug uptake [26]: Active
Drug uptake [27]: Active
Drug uptake [28]: Active
Drug uptake [29]: Active
Drug uptake [30]: Active
Drug uptake [31]: Not Active

Structure (SMILES): OCc1ccc(-c2nn(Cc3ccccc3Cl)c3ccccc23)o1
IC50 [1]: 0.65 µM

Structure (SMILES): OCc1ccc(-c2nn(Cc3ccc(C(F)(F)F)cc3)c3ccccc23)o1
IC50 [1]: 9.4 µM

Structure (SMILES): COc1ccc(Cn2nc(-c3ccc(CO)o3)c3ccccc32)cc1
IC50 [1]: 0.97 µM

Structure (SMILES): C#CCOCc1ccc(-c2nn(Cc3ccccc3)c3ccccc23)o1
IC50 [1]: 7 µM

Structure (SMILES): OCc1ccc(-c2nn(Cc3ccccc3F)c3ccccc23)o1
IC50 [1]: 0.26 µM

Structure (SMILES): OCc1ccc(-c2nn(Cc3ccccc3)c3ccccc23)o1
IC50 [1]: 2 µM
inhibition (Mus musculus [3]): inactive
GI50 (NCI-H226): 0.224 µM
CC50 (NCI-H226; read-out: pLC50 (the source's name) (converted)): 9.77 µM
TGI (NCI-H226; read-out: pTGI (converted)): 0.661 µM
GI50 [19]: 0.158 µM
TGI ([19]; RXF 631, read-out: pTGI (converted)): 0.525 µM

Structure (SMILES): OCc1ccc(-c2nn(Cc3ccccc3C(F)(F)F)c3ccccc23)o1
IC50 [1]: 13.9 µM
